The text below walks through data of PubChem BioAssay (NCI).

Some test systems named below: M14 melanoma; HCT-15 colon; UACC-257 melanoma; SF-268 CNS; OVCAR-5 ovarian; SNB-19 CNS; RXF 393 renal; HCC-2998 colon.
Holding throughout (test): inhibition of tumour cell growth, NCI panel, 48 h

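Tested at 5 concentrations; 48 h exposure; 96-well plates; endpoints linearly interpolated, else capped at highest concentration. Here, GI50 denotes the concentration required for 50% inhibition of growth. TGI: total growth inhibition.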

Take `CCN(CC(COc1ccc2c(c1)[n+]([O-])nc(N)[n+]2[O-])OC(C)=O)C(C)=O` (stereo not given): the TGI in the assay with M14 melanoma, with HCT-15 colon, in the assay with UACC-257 melanoma, in the assay on SF-268 CNS, in the assay with OVCAR-5 ovarian and in the assay on SNB-19 CNS was > 100 µM throughout.

`Oc1cc2ccccc2cc1-c1n[nH]c(=S)n1-c1ccc(Cl)cc1`: the GI50 in the assay on RXF 393 renal is 21.5 µM; with M14 melanoma, 15.1 µM; in the assay on HCT-15 colon it was 7.96 µM; with UACC-257 melanoma, 18.7 µM; in the assay with SF-268 CNS, 6.46 µM; with OVCAR-5 ovarian, 27.6 µM. The GI50 with SNB-19 CNS was 25.4 µM. The TGI in the assay on RXF 393 renal is 67.1 µM; in the assay on M14 melanoma, > 100 µM; in the assay with HCT-15 colon, > 100 µM; in the assay with UACC-257 melanoma, 56.7 µM; in the assay on SF-268 CNS, 32.9 µM; in the assay with OVCAR-5 ovarian, 95.6 µM. Further, in the assay on SNB-19 CNS, the TGI is > 100 µM.

In the case of `O=C(O)/C=C\C(=O)Nc1ccc2c(c1)C(=O)c1cc(F)ccc1-2`, the TGI with RXF 393 renal, in the assay with M14 melanoma, in the assay on HCT-15 colon, in the assay on UACC-257 melanoma, in the assay with SF-268 CNS and with OVCAR-5 ovarian was > 100 µM in each case. Also, in the assay with SNB-19 CNS, the TGI is > 100 µM.

As for `CC([O-])C(=O)[O-].NCC1CCC1CN.[Pt+4]` (stereo not given), the GI50 with HCC-2998 colon, in the assay with M14 melanoma, in the assay with HCT-15 colon, in the assay with UACC-257 melanoma, in the assay with SF-268 CNS and with OVCAR-5 ovarian was > 10 µM each time. In addition, the GI50 in the assay with SNB-19 CNS is > 10 µM. In addition, the TGI in the assay on HCC-2998 colon, in the assay on M14 melanoma, in the assay with HCT-15 colon, in the assay on UACC-257 melanoma, with SF-268 CNS and with OVCAR-5 ovarian was > 10 µM in each case. For the same compound, the TGI in the assay on SNB-19 CNS is > 10 µM.

As for `O=C1C(Cl)=C(Nc2cccc(O)c2)C(=O)N1c1cccc(Cl)c1Cl`, the GI50 is 18.4 µM in the assay on RXF 393 renal; 14.8 µM with M14 melanoma; 20.7 µM with HCT-15 colon; 11.7 µM in the assay with SF-268 CNS; 22.4 µM in the assay with OVCAR-5 ovarian; 19.1 µM in the assay with SNB-19 CNS. The TGI in the assay on RXF 393 renal amounted to 42.4 µM; in the assay with M14 melanoma, 31.7 µM; with HCT-15 colon, 56.7 µM; with SF-268 CNS, 28.8 µM; in the assay with OVCAR-5 ovarian, 57.7 µM; with SNB-19 CNS, 82.9 µM.

For the compound `Cc1nn(-c2ccc(Br)cc2)c(C)c1CC(=O)c1cc(O)ccc1O`, the GI50 is 9.01 µM in the assay on RXF 393 renal; 29.6 µM with M14 melanoma; 4.61 µM in the assay with HCT-15 colon; 11.2 µM in the assay on UACC-257 melanoma; 5.6 µM with SF-268 CNS; 16.2 µM in the assay on OVCAR-5 ovarian. Besides, the GI50 in the assay with SNB-19 CNS was 15 µM. Further, the TGI was 27.8 µM in the assay with RXF 393 renal; > 50 µM in the assay with M14 melanoma; 15.8 µM in the assay on HCT-15 colon; 26.6 µM in the assay with UACC-257 melanoma; 17.6 µM with SF-268 CNS; > 50 µM with OVCAR-5 ovarian. The TGI with SNB-19 CNS was > 50 µM.

For the compound `O=[N+]([O-])c1ccc(-c2cn(-c3ccc(Cl)cc3)cn2)cc1`, the TGI in the assay on HCC-2998 colon, with M14 melanoma, in the assay on HCT-15 colon, in the assay on UACC-257 melanoma, with SF-268 CNS and in the assay on OVCAR-5 ovarian was > 100 µM throughout. The TGI in the assay on SNB-19 CNS was > 100 µM.

In the case of `COc1cc(OC)cc(-c2cncn2-c2ccc(-c3nc4cc(OC)c(OC)c(OC)c4s3)cc2)c1`, the GI50 in the assay with HCC-2998 colon is > 100 µM; in the assay with RXF 393 renal, 30.2 µM; in the assay on HCT-15 colon, 5.72 µM; with UACC-257 melanoma, 20.5 µM; with SF-268 CNS, 22.1 µM; in the assay with OVCAR-5 ovarian, > 100 µM. Also, in the assay with SNB-19 CNS, the GI50 was 19.7 µM. The TGI with HCC-2998 colon, with RXF 393 renal, in the assay with HCT-15 colon, in the assay with UACC-257 melanoma, in the assay with SF-268 CNS and with OVCAR-5 ovarian was > 100 µM in each case. The TGI in the assay on SNB-19 CNS was > 100 µM.

With `O=CC1(C2(C=O)c3ccccc3-c3ccccc32)c2ccccc2-c2ccccc21`, the GI50 in the assay on HCC-2998 colon was > 100 µM; with HCT-15 colon, 1.68 µM; in the assay with UACC-257 melanoma it was 2.16 µM; in the assay with SF-268 CNS, 2.37 µM; with OVCAR-5 ovarian, 3.21 µM. The TGI was > 100 µM in the assay on HCC-2998 colon; 3.66 µM in the assay on HCT-15 colon; 5.29 µM in the assay on UACC-257 melanoma; 6.03 µM in the assay on SF-268 CNS; 6.34 µM in the assay on OVCAR-5 ovarian.

Regarding `Cc1nc2cc(N)c(Cl)cc2[nH]1`, the TGI in the assay on M14 melanoma, in the assay on HCT-15 colon, with UACC-257 melanoma, in the assay with SF-268 CNS, in the assay on OVCAR-5 ovarian and in the assay on SNB-19 CNS was > 100 µM in each case.

For the compound `COC(=O)C1C2CCCN2OC1(C)CO` (stereo not given), the TGI with M14 melanoma, in the assay with HCT-15 colon, with UACC-257 melanoma, in the assay on SF-268 CNS, in the assay on OVCAR-5 ovarian and in the assay on SNB-19 CNS was > 100 µM throughout.
